According to patent US9920032B2, “Heterocyclic compounds useful as pim kinase inhibitors” (Incyte Corporation, priority 2015, dated 2018):
Blank lines part the entries; values can stand above or below the molecule they belong to.

Columns and labels:
Format in all cases: biochemical
[1] = molecular target: Pim-3 (Homo sapiens (Human), UniProt Q86V86); experiment: Pim-3 kinase assay; details: 1 mM ATP; read-out: PIM3 IC50
Summary of the method: (§1)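 Enzyme at 2.5 pM (Pim-1) or 1.25 pM (Pim-3) reacted 1 h at 25° C with 1 mM ATP and 0.05 μM biotinylated BAD peptide, pH 7.5. Phospho-Ser112 BAD detected by antibody/Protein-A acceptor and streptavidin donor bead proximity signal after EDTA quench and 1 h dark incubation.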

[2] = molecular target: Pim-2 (Homo sapiens (Human), UniProt Q9P1W9); experiment: Pim-2 kinase assay; details: 1 mM ATP; read-out: PIM2 IC50
Summary of the method: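 TR-FRET assay with 1 nM enzyme, 0.05 μM fluorescein-CREBtide and 1 mM ATP in Tris pH 7.5 buffer with MgCl2, DTT, BSA and Tween-20, run 2 h at 25° C. Stopped with EDTA and Tb-labelled anti-CREB pSer133 antibody, then read after 30 min at room temperature.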

[3] = molecular target: Pim-1 (Homo sapiens (Human), UniProt P11309); experiment: Pim-1 kinase assay; details: 1 mM ATP; read-out: PIM1 IC50
Summary of the method: as §1

Pim-2, sequence (Q9P1W9 whole entry): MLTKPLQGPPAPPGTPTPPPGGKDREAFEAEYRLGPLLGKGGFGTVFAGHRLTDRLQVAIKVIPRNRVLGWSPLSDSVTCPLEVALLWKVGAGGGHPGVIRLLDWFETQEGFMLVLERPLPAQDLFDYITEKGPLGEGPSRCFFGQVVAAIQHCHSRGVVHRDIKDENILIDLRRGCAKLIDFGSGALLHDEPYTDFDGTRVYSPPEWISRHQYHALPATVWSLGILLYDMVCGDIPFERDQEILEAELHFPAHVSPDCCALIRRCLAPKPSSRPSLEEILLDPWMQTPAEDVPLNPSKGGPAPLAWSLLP
Pim-1, sequence (P11309 whole entry): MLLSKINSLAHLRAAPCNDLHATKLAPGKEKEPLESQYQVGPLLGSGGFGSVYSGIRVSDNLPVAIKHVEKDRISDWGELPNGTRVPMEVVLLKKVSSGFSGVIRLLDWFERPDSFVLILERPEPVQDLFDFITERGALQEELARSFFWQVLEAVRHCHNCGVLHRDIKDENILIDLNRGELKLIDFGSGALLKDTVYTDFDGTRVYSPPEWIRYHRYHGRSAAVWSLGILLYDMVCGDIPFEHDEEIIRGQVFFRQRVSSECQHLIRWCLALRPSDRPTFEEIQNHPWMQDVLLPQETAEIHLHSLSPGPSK

Compound: Cc1n[nH]cc1-c1cnc2c(C(=O)Nc3cnccc3[C@@H]3C[C@H](C)C[C@H](N)C3)ccc(F)c2c1 [Example 65, N-(4-((1R,3S,5S)-3-amino-5-methylcyclohexyl)pyridin-3-yl)-5-fluoro-3-(3-methyl-1H-pyrazol-4-yl)quinoline-8-carboxamide]
IC50 [1]: ≤ 0.01 µM | IC50 [2]: 0.1 to 1 µM | IC50 [3]: ≤ 0.01 µM

Compound: CC1CN(c2cnc3c(C(=O)Nc4cnccc4[C@@H]4C[C@H](C)C[C@H](N)C4)ccc(F)c3c2)CC(C)O1 (stereo partly drawn) [Example 37, N-(4-((1R,3S,5S)-3-Amino-5-methylcyclohexyl)pyridin-3-yl)-3-(2,6-dimethylmorpholino)-5-fluoroquinoline-8-carboxamide]
IC50 [1]: 0.01 to 0.05 µM | IC50 [2]: 1 to 10 µM | IC50 [3]: ≤ 0.01 µM

Compound: C[C@@H]1C[C@H](N)C[C@H](c2ccncc2NC(=O)c2ccc(F)c3cc(N(C)c4ccccc4)cnc23)C1 [Example 83, N-(4-((1R,3S,5S)-3-Amino-5-methylcyclohexyl)pyridin-3-yl)-5-fluoro-3-(methyl(phenyl)amino)quinoline-8-carboxamide]
IC50 [1]: ≤ 0.01 µM | IC50 [2]: ≤ 0.1 µM | IC50 [3]: ≤ 0.01 µM

Compound: C[C@@H]1C[C@H](N)C[C@H](c2ccncc2NC(=O)c2ccc(F)c3cc(Nc4ccccc4F)cnc23)C1 [Example 125, N-(4-((1R,3S,5S)-3-Amino-5-methylcyclohexyl)pyridin-3-yl)-5-fluoro-3-(2-fluorophenylamino)quinoline-8-carboxamide]
IC50 [1]: ≤ 0.01 µM | IC50 [2]: ≤ 0.1 µM | IC50 [3]: ≤ 0.01 µM

Compound: CO[C@H]1CCN(c2cnc3c(C(=O)Nc4cnccc4[C@@H]4C[C@H](C)C[C@H](N)C4)ccc(F)c3c2)C1 [Example 50, N-(4-((1R,3S,5S)-3-Amino-5-methylcyclohexyl)pyridin-3-yl)-5-fluoro-3-((S)-3-methoxypyrrolidin-1-yl)quinoline-8-carboxamide]
IC50 [1]: ≤ 0.01 µM | IC50 [2]: ≤ 0.1 µM | IC50 [3]: ≤ 0.01 µM

Compound: CC(C)[C@@H](C)Nc1cnc2c(C(=O)Nc3cnccc3[C@@H]3C[C@H](C)C[C@H](N)C3)ccc(F)c2c1 [Example 54, N-(4-((1R,3S,5S)-3-amino-5-methylcyclohexyl)pyridin-3-yl)-5-fluoro-3-((R)-3-methylbutan-2-ylamino)quinoline-8-carboxamide]
IC50 [1]: ≤ 0.01 µM | IC50 [2]: 0.1 to 1 µM | IC50 [3]: ≤ 0.01 µM

Compound: Cc1ccc(N(C)c2cnc3c(C(=O)Nc4cnccc4[C@@H]4C[C@H](C)C[C@H](N)C4)ccc(F)c3c2)c(C)n1 [Example 141, N-(4-((1R,3S,5S)-3-Amino-5-methylcyclohexyl)pyridin-3-yl)-3-((2,6-dimethylpyridin-3-yl)(methyl)amino)-5-fluoroquinoline-8-carboxamide]
IC50 [1]: ≤ 0.01 µM | IC50 [2]: ≤ 0.1 µM | IC50 [3]: ≤ 0.01 µM

Compound: C[C@@H]1C[C@H](N)C[C@H](c2ccncc2NC(=O)c2ccc(F)c3cc(N4CCCC4=O)cnc23)C1 [Example 78, N-(4-((1R,3S,5S)-3-Amino-5-methylcyclohexyl)pyridin-3-yl)-5-fluoro-3-(2-oxopyrrolidin-1-yl)quinoline-8-carboxamide]
IC50 [1]: ≤ 0.01 µM | IC50 [2]: 0.1 to 1 µM | IC50 [3]: ≤ 0.01 µM

Compound: CCOC(=O)N1CCN(c2cnc3c(C(=O)Nc4cnccc4[C@@H]4C[C@H](C)C[C@H](N)C4)ccc(F)c3c2)CC1 [Example 168, Ethyl 4-(8-(4-((1R,3S,5S)-3-amino-5-methylcyclohexyl)pyridin-3-ylcarbamoyl)-5-fluoroquinolin-3-yl)piperazine-1-carboxylate]
IC50 [1]: ≤ 0.01 µM | IC50 [2]: 0.1 to 1 µM | IC50 [3]: ≤ 0.01 µM

Compound: CC(C)N(C)c1cnc2c(C(=O)Nc3cnccc3[C@@H]3C[C@H](C)C[C@H](N)C3)ccc(F)c2c1 [Example 56, N-(4-((1R,3S,5S)-3-Amino-5-methylcyclohexyl)pyridin-3-yl)-5-fluoro-3-(isopropyl(methyl)amino)quinoline-8-carboxamide]
IC50 [1]: ≤ 0.01 µM | IC50 [2]: ≤ 0.1 µM | IC50 [3]: ≤ 0.01 µM

Compound: CO[C@@H]1CCN(c2cnc3c(C(=O)Nc4cnccc4[C@@H]4C[C@H](C)C[C@H](N)C4)ccc(F)c3c2)C[C@H]1F [Example 162, N-(4-((1R,3S,5S)-3-Amino-5-methylcyclohexyl)pyridin-3-yl)-5-fluoro-3-((3R,4R)-3-fluoro-4-methoxypiperidin-1-yl)quinoline-8-carboxamide]
IC50 [1]: ≤ 0.01 µM | IC50 [2]: ≤ 0.1 µM | IC50 [3]: ≤ 0.01 µM

Compound: C[C@@H]1C[C@H](N)C[C@H](c2ccncc2NC(=O)c2ccc(F)c3cc(N4CCCC[C@H]4C)cnc23)C1 [Example 169, N-(4-((1R,3S,5S)-3-Amino-5-methylcyclohexyl)pyridin-3-yl)-5-fluoro-3-((R)-2-methylpiperidin-1-yl)quinoline-8-carboxamide]
IC50 [1]: ≤ 0.01 µM | IC50 [2]: ≤ 0.1 µM | IC50 [3]: ≤ 0.01 µM

Compound: CO[C@H]1C[C@H](C)N(c2cnc3c(C(=O)Nc4cnccc4[C@@H]4C[C@H](C)C[C@H](N)C4)ccc(F)c3c2)C1 [Example 157, N-(4-((1R,3S,5S)-3-Amino-5-methylcyclohexyl)pyridin-3-yl)-5-fluoro-3-((2S,4S)-4-methoxy-2-methylpyrrolidin-1-yl)quinoline-8-carboxamide]
IC50 [1]: ≤ 0.01 µM | IC50 [2]: ≤ 0.1 µM | IC50 [3]: ≤ 0.01 µM

Compound: CCc1cnc2c(C(=O)Nc3cnccc3[C@@H]3C[C@H](C)C[C@H](N)C3)ccc(F)c2c1 [Example 1, N-{4-[(1R,3S,5S)-3-Amino-5-methylcyclohexyl]pyridin-3-yl}-3-ethyl-5-fluoroquinoline-8-carboxamide]
IC50 [1]: ≤ 0.01 µM | IC50 [2]: 0.1 to 1 µM | IC50 [3]: ≤ 0.01 µM

IC50 [1]: ≤ 0.01 µM | IC50 [2]: ≤ 0.1 µM | IC50 [3]: ≤ 0.01 µM
Compound: C[C@@H]1C[C@H](N)C[C@H](c2ccncc2NC(=O)c2ccc(F)c3cc(N4CCCN(S(C)(=O)=O)CC4)cnc23)C1 [Example 124, N-(4-((1R,3S,5S)-3-Amino-5-methylcyclohexyl)pyridin-3-yl)-5-fluoro-3-(4-(methylsulfonyl)-1,4-diazepan-1-yl)quinoline-8-carboxamide]

Compound: C[C@@H]1C[C@H](N)C[C@H](c2ccncc2NC(=O)c2ccc(F)c3cc(-c4ccc(C(F)(F)F)nc4)cnc23)C1 [Example 61, N-(4-((1R,3S,5S)-3-Amino-5-methylcyclohexyl)pyridin-3-yl)-5-fluoro-3-(6-(trifluoromethyl)pyridin-3-yl)quinoline-8-carboxamide]
IC50 [1]: 0.01 to 0.05 µM | IC50 [2]: 1 to 10 µM | IC50 [3]: ≤ 0.01 µM

Compound: COC(=O)N1CCN(c2cnc3c(C(=O)Nc4cnccc4[C@@H]4C[C@H](C)C[C@H](N)C4)ccc(F)c3c2)[C@@H](C)C1 [Example 88, (S)-Methyl 4-(8-(4-((1R,3S,5S)-3-amino-5-methylcyclohexyl)pyridin-3-ylcarbamoyl)-5-fluoroquinolin-3-yl)-3-methylpiperazine-1-carboxylate]
IC50 [1]: ≤ 0.01 µM | IC50 [2]: ≤ 0.1 µM | IC50 [3]: ≤ 0.01 µM

Compound: C[C@@H]1C[C@H](N)C[C@H](c2ccncc2NC(=O)c2ccc(F)c3cc(N[C@@H](C)C4CC4)cnc23)C1 [Example 52, N-(4-((1R,3S,5S)-3-Amino-5-methylcyclohexyl)pyridin-3-yl)-3-((S)-1-cyclopropylethylamino)-5-fluoroquinoline-8-carboxamide]
IC50 [1]: 0.01 to 0.05 µM | IC50 [2]: 1 to 10 µM | IC50 [3]: ≤ 0.01 µM

Compound: C[C@@H]1C[C@H](N)C[C@H](c2ccncc2NC(=O)c2ccc(F)c3cc(N4CCOc5cccc(F)c54)cnc23)C1 [Example 120, N-(4-((1R,3S,5S)-3-Amino-5-methylcyclohexyl)pyridin-3-yl)-5-fluoro-3-(5-fluoro-2H-benzo[b][1,4]oxazin-4(3H)-yl)quinoline-8-carboxamide]
IC50 [1]: ≤ 0.01 µM | IC50 [2]: ≤ 0.1 µM | IC50 [3]: ≤ 0.01 µM

Compound: C[C@@H]1C[C@H](N)C[C@H](c2ccncc2NC(=O)c2cccc3cc(N4CCCCC4C(F)F)cnc23)C1 (stereo partly drawn) [Example 71, N-(4-((1R,3S,5S)-3-Amino-5-methylcyclohexyl)pyridin-3-yl)-3-(2-(difluoromethyl)piperidin-1-yl)quinoline-8-carboxamide]
IC50 [1]: ≤ 0.01 µM | IC50 [2]: 0.1 to 1 µM | IC50 [3]: ≤ 0.01 µM

Compound: C[C@@H]1C[C@H](N)C[C@H](c2ccncc2NC(=O)c2ccc(F)c3cc(N4CCCc5cccc(F)c54)cnc23)C1 [Example 137, N-(4-((1R,3S,5S)-3-Amino-5-methylcyclohexyl)pyridin-3-yl)-5′,8-difluoro-3,4-dihydro-2H-1,3′-biquinoline-8′-carboxamide]
IC50 [1]: ≤ 0.01 µM | IC50 [2]: ≤ 0.1 µM | IC50 [3]: ≤ 0.01 µM

Compound: C[C@@H]1C[C@H](N)C[C@H](c2ccncc2NC(=O)c2ccc(F)c3cc(N(C)CCF)cnc23)C1 [Example 22, N-{4-[(1R,3S,5S)-3-Amino-5-methylcyclohexyl]pyridin-3-yl}-5-fluoro-3-[(2-fluoroethyl)(methyl)amino]quinoline-8-carboxamide]
IC50 [1]: ≤ 0.01 µM | IC50 [2]: ≤ 0.1 µM | IC50 [3]: ≤ 0.01 µM

Compound: C[C@@H]1C[C@H](N)C[C@H](c2ccncc2NC(=O)c2ccc(F)c3cc(N4CCN(C)C(=O)C4)cnc23)C1 [Example 75, N-(4-((1R,3S,5S)-3-Amino-5-methylcyclohexyl)pyridin-3-yl)-5-fluoro-3-(4-methyl-3-oxopiperazin-1-yl)quinoline-8-carboxamide]
IC50 [1]: ≤ 0.01 µM | IC50 [2]: ≤ 0.1 µM | IC50 [3]: ≤ 0.01 µM

Compound: C[C@@H]1C[C@H](N)C[C@H](c2ccncc2NC(=O)c2ccc(F)c3cc(N4CC5COCC5C4)cnc23)C1 (stereo partly drawn) [Example 110, N-(4-((1R,3S,5S)-3-Amino-5-methylcyclohexyl)pyridin-3-yl)-3-(dihydro-1H-furo[3,4-c]pyrrol-5(3H,6H,6aH)-yl)-5-fluoroquinoline-8-carboxamide]
IC50 [1]: ≤ 0.01 µM | IC50 [2]: ≤ 0.1 µM | IC50 [3]: ≤ 0.01 µM
